Measurements reported in patent publication US20230406885A1, “CYCLIC PEPTIDES FOR TRAPPING INTERLEUKIN-1 BETA” (MERCK SHARP & DOHME LLC, priority 2022, published 2023).
*1 amine or outer side, *2 acyl side, *3 side chain or, on linkers, in order; H or OH if unused. Where a SMILES comes first, the peptide text is derived from it. [ ]: non-standard residue; d: D form. Bip(4'-COOH) = N[C@@H](Cc1ccc(-c2ccc(C(=O)O)cc2)cc1)C(=O)O; X2 = O=C(O)c1ccc(-c2ccc(C[C@H](N[*:1])C(=O)[*:2])cn2)cc1; 1Nal(3S-Me) = C[C@@H](c1cccc2ccccc12)[C@H](N)C(=O)O; Ala(indazol-1-yl) = N[C@@H](Cn1ncc2ccccc21)C(=O)O; Ala(indolin-1-yl) = N[C@@H](CN1CCc2ccccc21)C(=O)O; Phe(4-COOH) = N[C@@H](Cc1ccc(C(=O)O)cc1)C(=O)O; h3Pal(5-CN) = N#Cc1cncc(CC[C@H](N)C(=O)O)c1; Pro(4R-NH2) = N[C@H]1CN[C@H](C(=O)O)C1; 1Nal = N[C@@H](Cc1cccc2ccccc12)C(=O)O; hTyr = N[C@@H](CCc1ccc(O)cc1)C(=O)O; 4Pal = N[C@@H](Cc1ccncc1)C(=O)O; Orn = NCCC[C@H](N)C(=O)O; dNMeA = CN[C@H](C)C(=O)O; Dab = NCC[C@H](N)C(=O)O; Dap = NC[C@H](N)C(=O)O; Aib = CC(C)(N)C(=O)O

target: T1, Recombinant human IL-1β (Homo sapiens, UniProt P01584); assay: IL-6 assay in MRC5 cells: inhibition of IL-1β induced IL-6 secretion (AlphaLISA); assay type: cell-based; conditions: inhibition of IL-1β induced IL-6 secretion in MRC5 cells; IL-1β pre-incubated 1 hour with compound; read-out: MRC5 IC50
T1 construct: purchased BioLegend 579404
T1 sequence (P01584 117-269): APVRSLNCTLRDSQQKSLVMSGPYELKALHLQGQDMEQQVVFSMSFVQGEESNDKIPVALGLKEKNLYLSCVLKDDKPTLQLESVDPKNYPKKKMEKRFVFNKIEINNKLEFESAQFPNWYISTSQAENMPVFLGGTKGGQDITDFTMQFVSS
Experimental: Procedure for IL-6 Assay in MRC5 Cells
The inhibition of IL-1β induced IL-6 secretion was evaluated in MRC5 cells. Recombinant human IL-1β (BioLegend 579404) at 2×EC80 concentration was prepared in seeding medium, EMEM (ATCC 30-2003) with 0.025% BSA (Sigma A9576), 1× penicillin/streptomycin (Gibco 15070-063), 1×NEAA (Gibco 11140-050), 1× GlutaMax (Gibco 35050-061), and 1× sodium pyruvate (Gibco 11360-070). 20 μL of IL-1β was added to a 384-well collagen-coated plate (Corning 354664) and pre-incubated at ambient temperature for 1 hour with 200 nL of compound dispensed using an ECHO 555 liquid handler. Human lung fibroblast MRC5 cells (ATCC CCL-171) were added at a density of 3000 cells/20 μL per well. The cells were prepared by passaging three times in growth medium, EMEM (ATCC 30-2003) with 10% fetal bovine serum (Gibco 16140-071), 1× penicillin/streptomycin (Gibco 15070-063), 1×NEAA (Gibco 11140-050), 1× GlutaMax (Gibco 35050-061), and 1× sodium pyruvate (Gibco 11360-070) in collagen-coated T175 flasks (Greiner 661950) and harvested in seeding medium after 5 minutes of 0.25% trypsin-EDTA (Gibco 25200-056) digestion. The 384-well collagen-coated plate, containing a final volume of 40 μL, was incubated at 37° C., 5% CO2 overnight. 5 μL of the conditioned medium was transferred to a 384-well AlphaLISA plate (PerkinElmer 6005350) for detection of IL-6 using the human AlphaLISA IL-6 kit (PerkinElmer AL223F) as per the manufacturer's protocol. 20 μL of the acceptor bead/biotinylated antibody mix was added to the 384-well AlphaLISA plate and incubated for 1 hour at ambient temperature. The donor bead mix was protected from light and 25 μL was added to the plate and incubated for 30 minutes at ambient temperature. The AlphaLISA plate was read on an EnVision multimode plate reader (Perkin Elmer model 2104) using the AlphaScreen setting (laser exc at 680 nm and emis at 570 nm). Dose response curves and IC50 values were analyzed using a 4-parameter logistic equation in Spotfire software (Tibco, Palo Alto, CA).

SMILES	IC50
C[C@@H]1C(=O)NCC(=O)N[C@@H](Cc2ccc(-c3ccc(C(=O)O)cc3)cc2)C(=O)N[C@@H](Cc2cccc3ccccc23)C(=O)N[C@@H](CCN)C(=O)NC(C)(C)C(=O)NCC(=O)N[C@@H](Cc2ccc(-c3ccc(C(=O)O)cc3)cc2)C(=O)N[C@@H](Cc2c[nH]c3ccccc23)C(=O)N[C@@H](Cc2ccc(C(=O)O)cc2)C(=O)NCC(=O)N2C[C@H](N)C[C@H]2C(=O)N[C@@H]([C@@H](C)c2cccc3ccccc23)C(=O)N[C@@H](CC(=O)O)C(=O)N1C [Example 15] (cyclo([Bip(4'-COOH)]W[Phe(4-COOH)]G[Pro(4R-NH2)][1Nal(3S-Me)]D[dNMeA]G[Bip(4'-COOH)][1Nal][Dab][Aib]G))	654 pM
C[C@@H]1C(=O)NCC(=O)N[C@@H](Cc2ccc(-c3ccc(C(=O)O)cc3)cc2)C(=O)N[C@@H](Cc2cccc3ccccc23)C(=O)N[C@@H](CCN)C(=O)NC(C)(C)C(=O)N[C@@H](CCc2ccc(O)cc2)C(=O)N[C@@H](Cc2ccc(-c3ccc(C(=O)O)cc3)cc2)C(=O)N[C@@H](Cc2c[nH]c3ccccc23)C(=O)N[C@@H](Cc2ccc(C(=O)O)cc2)C(=O)NCC(=O)N2C[C@H](N)C[C@H]2C(=O)N[C@@H]([C@@H](C)c2cccc3ccccc23)C(=O)N[C@@H](CC(=O)O)C(=O)N1C [Example 16] (cyclo([Bip(4'-COOH)]W[Phe(4-COOH)]G[Pro(4R-NH2)][1Nal(3S-Me)]D[dNMeA]G[Bip(4'-COOH)][1Nal][Dab][Aib][hTyr]))	175 pM
C[C@@H]1C(=O)NCC(=O)N[C@@H](Cc2ccc(-c3ccc(C(=O)O)cc3)cc2)C(=O)N[C@@H](Cc2cccc3ccccc23)C(=O)N[C@@H](CN)C(=O)NC(C)(C)C(=O)NCC(=O)N[C@@H](Cc2ccc(-c3ccc(C(=O)O)cc3)cc2)C(=O)N[C@@H](Cc2c[nH]c3ccccc23)C(=O)N[C@@H](Cc2ccc(C(=O)O)cc2)C(=O)NCC(=O)N2C[C@H](N)C[C@H]2C(=O)N[C@@H]([C@@H](C)c2cccc3ccccc23)C(=O)N[C@@H](CC(=O)O)C(=O)N1C [Example 17] (cyclo([Bip(4'-COOH)]W[Phe(4-COOH)]G[Pro(4R-NH2)][1Nal(3S-Me)]D[dNMeA]G[Bip(4'-COOH)][1Nal][Dap][Aib]G))	222 pM
CC(C)C[C@@H]1NC(=O)[C@H](Cc2cccc3ccccc23)NC(=O)[C@H](Cc2ccc(-c3ccc(C(=O)O)cc3)cc2)NC(=O)CNC(=O)[C@@H](C)N(C)C(=O)[C@H](CC(=O)O)NC(=O)[C@H]([C@@H](C)c2cccc3ccccc23)NC(=O)[C@@H]2C[C@@H](N)CN2C(=O)CNC(=O)[C@H](Cc2ccc(C(=O)O)cc2)NC(=O)[C@H](Cc2c[nH]c3ccccc23)NC(=O)[C@H](Cc2ccc(-c3ccc(C(=O)O)cc3)cc2)NC(=O)CNC(=O)C(C)(C)NC1=O [Example 19] (cyclo([Bip(4'-COOH)]W[Phe(4-COOH)]G[Pro(4R-NH2)][1Nal(3S-Me)]D[dNMeA]G[Bip(4'-COOH)][1Nal]L[Aib]G))	118 pM
C[C@@H]1C(=O)NCC(=O)N[C@@H](Cc2ccc(-c3ccc(C(=O)O)cc3)cc2)C(=O)N[C@@H](Cc2cccc3ccccc23)C(=O)N[C@@H](CCCN)C(=O)NC(C)(C)C(=O)NCC(=O)N[C@@H](Cc2ccc(-c3ccc(C(=O)O)cc3)cc2)C(=O)N[C@@H](Cc2c[nH]c3ccccc23)C(=O)N[C@@H](Cc2ccc(C(=O)O)cc2)C(=O)NCC(=O)N2C[C@H](N)C[C@H]2C(=O)N[C@@H]([C@@H](C)c2cccc3ccccc23)C(=O)N[C@@H](CC(=O)O)C(=O)N1C [Example 20] (cyclo([Bip(4'-COOH)]W[Phe(4-COOH)]G[Pro(4R-NH2)][1Nal(3S-Me)]D[dNMeA]G[Bip(4'-COOH)][1Nal][Orn][Aib]G))	440 pM

Now those with a lower IC50, led by results:

IC50	SMILES
90.8 pM	C[C@@H]1C(=O)NCC(=O)N[C@@H](Cc2ccc(-c3ccc(C(=O)O)cc3)cc2)C(=O)N[C@@H](Cc2c[nH]c3ccccc23)C(=O)N[C@@H](CN)C(=O)N[C@H](C)C(=O)N[C@@H](CCc2ccc(O)cc2)C(=O)N[C@@H](Cc2ccc(-c3ccc(C(=O)O)cc3)nc2)C(=O)N[C@@H](Cc2c[nH]c3ccccc23)C(=O)N[C@@H](Cc2ccc(C(=O)O)cc2)C(=O)NCC(=O)N2C[C@H](N)C[C@H]2C(=O)N[C@@H]([C@@H](C)c2cccc3ccccc23)C(=O)N[C@@H](CC(=O)O)C(=O)N1C [Example 11] (cyclo([X2]W[Phe(4-COOH)]G[Pro(4R-NH2)][1Nal(3S-Me)]D[dNMeA]G[Bip(4'-COOH)]W[Dap][dA][hTyr]))
88.5 pM	C[C@@H]1C(=O)NCC(=O)N[C@@H](Cc2ccc(-c3ccc(C(=O)O)cc3)cc2)C(=O)N[C@@H](Cc2cccc3ccccc23)C(=O)N[C@@H](CN)C(=O)NC(C)(C)C(=O)N[C@@H](CCc2cncc(C#N)c2)C(=O)N[C@@H](Cc2ccc(-c3ccc(C(=O)O)cc3)cc2)C(=O)N[C@@H](Cc2c[nH]c3ccccc23)C(=O)N[C@@H](Cc2ccc(C(=O)O)cc2)C(=O)NCC(=O)N2C[C@H](N)C[C@H]2C(=O)N[C@@H]([C@@H](C)c2cccc3ccccc23)C(=O)N[C@@H](CC(=O)O)C(=O)N1C [Example 18] (cyclo([Bip(4'-COOH)]W[Phe(4-COOH)]G[Pro(4R-NH2)][1Nal(3S-Me)]D[dNMeA]G[Bip(4'-COOH)][1Nal][Dap][Aib][h3Pal(5-CN)]))
55.1 pM	C[C@@H]1C(=O)NCC(=O)N[C@@H](Cc2ccc(-c3ccc(C(=O)O)cc3)nc2)C(=O)N[C@@H](Cc2c[nH]c3ccccc23)C(=O)N[C@@H](CN)C(=O)N[C@H](C)C(=O)N[C@@H](CCc2ccc(O)cc2)C(=O)N[C@@H](Cc2ccc(-c3ccc(C(=O)O)cc3)cc2)C(=O)N[C@@H](Cc2c[nH]c3ccccc23)C(=O)N[C@@H](Cc2ccc(C(=O)O)cc2)C(=O)NCC(=O)N2C[C@H](N)C[C@H]2C(=O)N[C@@H]([C@@H](C)c2cccc3ccccc23)C(=O)N[C@@H](CC(=O)O)C(=O)N1C [Example 12] (cyclo([Bip(4'-COOH)]W[Phe(4-COOH)]G[Pro(4R-NH2)][1Nal(3S-Me)]D[dNMeA]G[X2]W[Dap][dA][hTyr]))
32.5 pM	C[C@@H]1C(=O)NCC(=O)N[C@@H](Cc2ccc(-c3ccc(C(=O)O)cc3)cc2)C(=O)N[C@@H](Cc2ccncc2)C(=O)N[C@@H](CN)C(=O)N[C@H](C)C(=O)N[C@@H](CCc2ccc(O)cc2)C(=O)N[C@@H](Cc2ccc(-c3ccc(C(=O)O)cc3)cc2)C(=O)N[C@@H](Cc2c[nH]c3ccccc23)C(=O)N[C@@H](Cc2ccc(C(=O)O)cc2)C(=O)NCC(=O)N2C[C@H](N)C[C@H]2C(=O)N[C@@H]([C@@H](C)c2cccc3ccccc23)C(=O)N[C@@H](CC(=O)O)C(=O)N1C [Example 22] (cyclo([Bip(4'-COOH)]W[Phe(4-COOH)]G[Pro(4R-NH2)][1Nal(3S-Me)]D[dNMeA]G[Bip(4'-COOH)][4Pal][Dap][dA][hTyr]))
31 pM	C[C@@H]1C(=O)NCC(=O)N[C@@H](Cc2ccc(-c3ccc(C(=O)O)cc3)cc2)C(=O)N[C@@H](Cn2ncc3ccccc32)C(=O)N[C@@H](CN)C(=O)N[C@H](C)C(=O)N[C@@H](CCc2ccc(O)cc2)C(=O)N[C@@H](Cc2ccc(-c3ccc(C(=O)O)cc3)cc2)C(=O)N[C@@H](Cc2c[nH]c3ccccc23)C(=O)N[C@@H](Cc2ccc(C(=O)O)cc2)C(=O)NCC(=O)N2C[C@H](N)C[C@H]2C(=O)N[C@@H]([C@@H](C)c2cccc3ccccc23)C(=O)N[C@@H](CC(=O)O)C(=O)N1C [Example 13] (cyclo([Bip(4'-COOH)]W[Phe(4-COOH)]G[Pro(4R-NH2)][1Nal(3S-Me)]D[dNMeA]G[Bip(4'-COOH)][Ala(indazol-1-yl)][Dap][dA][hTyr]))
29.7 pM	C[C@@H]1C(=O)NCC(=O)N[C@@H](Cc2ccc(-c3ccc(C(=O)O)cc3)cc2)C(=O)N[C@@H](CN2CCc3ccccc32)C(=O)N[C@@H](CN)C(=O)N[C@H](C)C(=O)N[C@@H](CCc2ccc(O)cc2)C(=O)N[C@@H](Cc2ccc(-c3ccc(C(=O)O)cc3)cc2)C(=O)N[C@@H](Cc2c[nH]c3ccccc23)C(=O)N[C@@H](Cc2ccc(C(=O)O)cc2)C(=O)NCC(=O)N2C[C@H](N)C[C@H]2C(=O)N[C@@H]([C@@H](C)c2cccc3ccccc23)C(=O)N[C@@H](CC(=O)O)C(=O)N1C [Example 14] (cyclo([Bip(4'-COOH)]W[Phe(4-COOH)]G[Pro(4R-NH2)][1Nal(3S-Me)]D[dNMeA]G[Bip(4'-COOH)][Ala(indolin-1-yl)][Dap][dA][hTyr]))
23.4 pM	C[C@@H]1C(=O)NCC(=O)N[C@@H](Cc2ccc(-c3ccc(C(=O)O)cc3)cc2)C(=O)N[C@@H](Cc2ccncc2)C(=O)N[C@@H](CN)C(=O)N[C@H](C)C(=O)N[C@@H](CCc2cncc(C#N)c2)C(=O)N[C@@H](Cc2ccc(-c3ccc(C(=O)O)cc3)cc2)C(=O)N[C@@H](Cc2c[nH]c3ccccc23)C(=O)N[C@@H](Cc2ccc(C(=O)O)cc2)C(=O)NCC(=O)N2C[C@H](N)C[C@H]2C(=O)N[C@@H]([C@@H](C)c2cccc3ccccc23)C(=O)N[C@@H](CC(=O)O)C(=O)N1C [Example 21] (cyclo([Bip(4'-COOH)]W[Phe(4-COOH)]G[Pro(4R-NH2)][1Nal(3S-Me)]D[dNMeA]G[Bip(4'-COOH)][4Pal][Dap][dA][h3Pal(5-CN)]))
